Measured values from patent US7368423B1, “Composition and method for treating chronic allograft rejection” (priority 2001, dated 2008).

Columns and labels:
[1] = tested on: allogeneic small bowel transplantation; settings: rats sacrificed ten days after small bowel transplantation; cited from earlier work
[2] = tested on: heart allografts; settings: cited from earlier work
[3] = tested on: ACI to LEW rat cardiac transplant; format: in vivo; settings: given with CSA
Excerpt: An ACI-LEW rat cardiac transplant model was used to test the ability of 2-CDA to suppress allograft chronic rejection.
Animals were sacrificed at 90 days post transplant. Heart grafts were subjected to evaluation which included the quantification of the extent to which the following pathologies typically associated with chronic allograft rejection were present in the allograft models: myocardial Infiltration (MI), myocardial fibrosis (MF), and intimal proliferation (IP).
Each of these pathologies is associated with the vascular disease of transplant arteriosclerosis.

Nc1nc(Cl)nc2c1ncn2[C@H]1C[C@H](O)[C@@H](CO)O1 [2-CDA, 2-chlorodeoxyadenosine]
graft rejection (histology) [1]: moderate to severe rejection
effect on allograft rejection ([2]; 2-CDA alone): no effect
rejection of heart allografts (histology) ([2]; rats, 10 days post transplant): severe rejection
most effective dose of 2-CDA [3]: 1 mg per kilogram of recipient body mass per week
